By Ki is commonly meant a dissociation constant, usually derived from enzyme kinetics or from competition with a known ligand. A lower Ki goes with a stronger hold on the target. For orientation: Km means the substrate concentration at which the rate is half of its maximum.

Four molecules from paper PMC3328629 (2012) can be followed below.

The target in test [1] is T1, S-adenosyl-L-homocysteine hydrolase (HsSAHH) (Homo sapiens, UniProt P23526).
T1 sequence (P23526 2-432): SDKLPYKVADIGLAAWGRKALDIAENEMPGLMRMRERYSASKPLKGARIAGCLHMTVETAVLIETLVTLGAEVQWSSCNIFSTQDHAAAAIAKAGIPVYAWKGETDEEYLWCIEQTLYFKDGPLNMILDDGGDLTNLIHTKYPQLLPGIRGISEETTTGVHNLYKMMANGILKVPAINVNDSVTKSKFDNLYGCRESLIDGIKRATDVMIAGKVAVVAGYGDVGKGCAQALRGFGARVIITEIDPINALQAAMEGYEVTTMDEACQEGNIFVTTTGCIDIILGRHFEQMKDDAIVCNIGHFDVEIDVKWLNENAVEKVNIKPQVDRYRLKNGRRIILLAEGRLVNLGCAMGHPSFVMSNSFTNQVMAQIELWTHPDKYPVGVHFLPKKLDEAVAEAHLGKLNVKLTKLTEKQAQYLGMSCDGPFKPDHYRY
The experiment in a line: luciferase-coupled adenosine assay. It counts as biochemical.

Test [2] has as its target T1, S-adenosyl-L-homocysteine hydrolase (HsSAHH). The experiment in a line: biochemical.
Test [3] shares this target.
Test [4] has the same target. Kind of test: Michaelis-Menten kinetics. It counts as biochemical.

On to `NC[C@H]1O[C@@H](n2cnc3c(N)ncnc32)[C@H](O)[C@@H]1O` [INH-1, 5′-deoxy-5′-amino-β-D-adenosine], for which, in test [1], the affinity, expressed as Ki, was 2170 ± 80 nM.

Consider `Nc1ncnc2c1ncn2C[C@@H](O)[C@@H](O)C(=O)O` [D-eritadenine], for which, in test [2], the Ki was determined as 11.3 ± 0.6 nM.

In the case of `Nc1ncnc2c1ncn2[C@@H]1C=C(CO)[C@@H](O)[C@H]1O` [INH, neplanocin A], in test [3], the “HPLC analysis of adenosine formation without coupling enzymes” value is given as “Under these conditions (cf. Supplementary Methods, Supporting Information), INH totally inhibits SAHH”.

On to `Nc1ncnc2c1ncn2[C@@H]1O[C@H](CSCC[C@H](N)C(=O)O)[C@@H](O)[C@H]1O` [SAH, S-adenosyl-L-homocysteine], for which the Km in test [4] was 22 ± 2 µM.
